# Test results: patent US20250144094A1 (Erasca, Inc., priority 2021, published 2025)
# Molecular target: Recombinant human ULK1 (1-649) (Homo sapiens (Human), UniProt O75385)
# Assay: ULK1 ADP Glo kinase activity assay (MBP substrate)
# Conditions: 25° C., 40 minutes, read-out: ULK1 biochemical IC50
# Procedure, shortened: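 GST-tagged ULK1 (1-649) from Sf9 cells phosphorylated MBP, with ATP, for 40 min at 25 °C across a 12-point series from 10 uM. ADP formed was quantified by ADP-Glo luminescence against DMSO controls. IC50 came from a four-parameter variable-slope fit of log concentration.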
# Sequence of Recombinant human ULK1 (1-649) (O75385 1-649): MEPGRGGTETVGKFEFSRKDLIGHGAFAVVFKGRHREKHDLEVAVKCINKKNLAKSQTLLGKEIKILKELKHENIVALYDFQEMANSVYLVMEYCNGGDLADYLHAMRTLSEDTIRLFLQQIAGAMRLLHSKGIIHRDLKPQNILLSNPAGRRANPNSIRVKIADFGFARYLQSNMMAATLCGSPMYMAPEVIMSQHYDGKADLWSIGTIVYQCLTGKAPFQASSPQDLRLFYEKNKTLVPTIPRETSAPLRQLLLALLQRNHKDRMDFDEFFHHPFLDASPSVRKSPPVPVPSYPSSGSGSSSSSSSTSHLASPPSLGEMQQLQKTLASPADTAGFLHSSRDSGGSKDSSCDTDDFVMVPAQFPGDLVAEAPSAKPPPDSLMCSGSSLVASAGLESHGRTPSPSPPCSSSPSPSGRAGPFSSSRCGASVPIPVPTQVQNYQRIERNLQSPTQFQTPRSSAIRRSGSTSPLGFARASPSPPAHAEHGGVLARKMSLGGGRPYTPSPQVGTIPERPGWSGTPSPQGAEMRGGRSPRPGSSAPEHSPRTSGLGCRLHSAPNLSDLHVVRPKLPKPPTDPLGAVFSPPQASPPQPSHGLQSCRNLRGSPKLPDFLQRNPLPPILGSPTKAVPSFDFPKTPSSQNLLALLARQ
row,Compound,IC50 [nM]
1,"CS(=O)(=O)c1csc(-c2nc(Nc3cc4c(cc3Cl)CNCCC4)ncc2C(F)(F)F)c1 [Example 127, 8-chloro-N-(4-(4-(methylsulfonyl)thiophen-2-yl)-5-(trifluoromethyl)pyrimidin-2-yl)-2,3,4,5-tetrahydro-1H-benzo[c]azepin-7-amine]",≤ 10
2,"O=C1NCCc2sc(-c3nc(Nc4cc5c(cc4C4CC4)CNCC5)ncc3C(F)(F)F)cc21 [Example 29, 2-(2-((7-Cyclopropyl-1,2,3,4-tetrahydroisoquinolin-6-yl)amino)-5-(trifluoromethyl)pyrimidin-4-yl)-6,7-dihydrothieno[3,2-c]pyridin-4(5H)-one]",≤ 10
3,"NC(=O)c1csc(-c2nc(Nc3cc4c(cc3Cl)CNC4)ncc2C(F)(F)F)c1 [Example 7, 5-(2-((6-chloroisoindolin-5-yl)amino)-5-(trifluoromethyl)pyrimidin-4-yl)thiophene-3-carboxamide]",≤ 10
4,"CN(C)C(=O)c1csc(-c2nc(Nc3cc4c(cc3Cl)CNCC4)ncc2C(F)(F)F)c1 [Example 2, 5-(2-((7-chloro-1,2,3,4-tetrahydroisoquinolin-6-yl)amino)-5-(trifluoromethyl)pyrimidin-4-yl)-N,N-dimethylthiophene-3-carboxamide]",10 to 50
5,"CS(=O)(=O)c1csc(-c2nc(Nc3cc4c(cc3C3CC3)CNCC4)ncc2C(F)(F)F)c1 [Example 132, 7-cyclopropyl-N-(4-(4-(methylsulfonyl)thiophen-2-yl)-5-(trifluoromethyl)pyrimidin-2-yl)-1,2,3,4-tetrahydroisoquinolin-6-amine]",≤ 10
6,"CN1Cc2cc(F)c(Nc3ncc(C(F)(F)F)c(-c4cc(S(C)(=O)=O)cs4)n3)cc2C1 [Example 80, 6-fluoro-N-[4-(4-methanesulfonylthiophen-2-yl)-5-(trifluoromethyl)pyrimidin-2-yl]-2-methyl-2,3-dihydro-1H-isoindol-5-amine]",≤ 10
7,"CS(=O)(=O)c1csc(-c2nc(Nc3cc4c(cc3F)CN(C3CC3)C4)ncc2C(F)(F)F)c1 [Example 114, 2-cyclopropyl-6-fluoro-N-[4-(4-methylsulfonyl-2-thienyl)-5-(trifluoromethyl)pyrimidin-2-yl]isoindolin-5-amine]",10 to 50

# Further lines, results first:
row,IC50 [nM],Compound
1,≤ 10,"NC(=O)c1csc(-c2nc(Nc3cc4c(cc3Cl)CNCC4)ncc2C(F)(F)F)c1 [Example 1, 5-(2-((7-chloro-1,2,3,4-tetrahydroisoquinolin-6-yl)amino)-5-(trifluoromethyl)pyrimidin-4-yl)thiophene-3-carboxamide]"
2,≤ 10,"CS(=O)(=O)Nc1csc(-c2nc(Nc3cc4c(cc3Cl)CNCC4)ncc2C(F)(F)F)c1 [Example 16, N-(5-(2-((7-chloro-1,2,3,4-tetrahydroisoquinolin-6-yl)amino)-5-(trifluoromethyl)pyrimidin-4-yl)thiophen-3-yl)methanesulfonamide]"
3,10 to 50,"COCc1sc(-c2nc(Nc3cc4c(cc3Cl)CNCC4)ncc2C(F)(F)F)cc1S(C)(=O)=O [Example 96, 7-chloro-N-(4-(5-(methoxymethyl)-4-(methylsulfonyl)thiophen-2-yl)-5-(trifluoromethyl)pyrimidin-2-yl)-1,2,3,4-tetrahydroisoquinolin-6-amine]"
4,≤ 10,"CN1CCc2cc(Nc3ncc(C(F)(F)F)c(-c4cc5c(s4)C(=O)N(C)CCS5(=O)=O)n3)c(Cl)cc2C1 [Example 116, 7-[2-[(7-chloro-2-methyl-3,4-dihydro-1H-isoquinolin-6-yl)amino]-5-(trifluoromethyl)pyrimidin-4-yl]-4-methyl-1,1-dioxo-2,3-dihydrothieno[2,3-f][1,4]thiazepin-5-one]"
5,10 to 50,"CS(=O)(=O)c1csc(-c2nc(Nc3cc4c(cc3Cl)CN(C3CC3)C4)ncc2C(F)(F)F)c1 [Example 113, 6-chloro-2-cyclopropyl-N-[4-(4-methylsulfonyl-2-thienyl)-5-(trifluoromethyl)pyrimidin-2-yl]isoindolin-5-amine]"
